The results in this text go back to patent publication US7396848B1, “Neurotrophin production/secretion promoting agent” (Takeda Pharmaceutical Company Limited, priority 2000, dated 2008).

Experiment [1] has as its system NGF. Briefly: NGF production/secretion promoting activity in cultured Schwann cells (enzyme immunoassay of culture fluid). The class given is cell-based, SD rats. The note with it: 24 hours, concentrations of 10^−4 M to 10^−8 M, result in words. Here is the method:
Schwann cells were prepared by subjecting the dorsal spinal root ganglion collected from 10 newborn SD rats to enzyme treatment using 0.25% trypsin containing 0.01% deoxyribonuclease (DNase, produced by Sigma), followed by cloning from the cell group obtained. […]
The culture fluid obtained in each run of Reference Example 1A was recovered and assayed for the neurotrophin content therein. […] After washing, 30 μl of 4-methylumbelliferyl-β-D-galactoside (produced by Sigma) (10 μg/μl) was added to the substrate, the reaction was allowed to proceed at room temperature for 4 hours and then terminated by addition of 130 μl of 0.1 M glycine-sodium hydroxide buffer (pH 10.3), and the fluorescent intensity of the 4-methylumbelliferone produced was determined (Ex: 360 nm; Em: 450 nm). The amount of NGF was calculated based on a standard curve and expressed in terms of relative multiplicity in relation to the amount of NGF (control) produced and secreted by cells treated in the same manner without adding the test compound. […]

The subject of experiment [2] is BDNF. Briefly: BDNF production/secretion promoting activity in cultured Schwann cells (enzyme immunoassay of culture fluid). Format: cell-based, SD rats. The note with it: 24 hours, concentrations of 10^−4 M to 10^−8 M, result in words.
The subject of experiment [3] is NGF. In words: NGF content in peripheral and brain tissues of STZ diabetic neuropathy model rats. Format: in vivo, SD rats. The method, then:
(§1) The culture fluid obtained in each run of Reference Example 1A was recovered and assayed for the neurotrophin content therein. NGF was assayed by the enzyme immunoassay method described by Murase et al. in Biochemistry International, vol. 22, p. 807 (1990). Thus, an anti-NGF antibody (100 μg/ml) (antibody obtained by using mouse NGF as the antigen and immunizing New Zealand albino rabbits therewith) was distributed in 10-μl portions in the wells of 96-well round bottom plates and antibody adsorption was allowed to proceed by 2 hours standing at room temperature. After removing the antibody, each well was washed three times with a washing solution. A 10-μl portion of the above recovered culture fluid or standard NGF solution was placed in each well and the plates were allowed to stand at room temperature for 2.5 hours. After three times washings of each well, 20 μl of biotinylated anti-NGF antibody (35 ng/ml) was added thereto, followed by overnight standing at 4° C. […] After washing, 30 μl of 4-methylumbelliferyl-β-D-galactoside (produced by Sigma) (10 μg/μl) was added to the substrate, the reaction was allowed to proceed at room temperature for 4 hours and then terminated by addition of 130 μl of 0.1 M glycine-sodium hydroxide buffer (pH 10.3), and the fluorescent intensity of the 4-methylumbelliferone produced was determined (Ex: 360 nm; Em: 450 nm). The amount of NGF was calculated based on a standard curve and expressed in terms of relative multiplicity in relation to the amount of NGF (control) produced and secreted by cells treated in the same manner without adding the test compound. […]
(§2) A diabetic neuropathy model was made by injecting streptozotocin (STZ) into the tail vein of male 6-week-old SD rats in a dose of 70 mg/kg body weight. […] After 30 minutes of centrifugation at 15,000 rpm, the supernatant was used as the sample and the NGF and BDNF contents were determined in the same manner as in Experimental Example 1.

Experiment [4] has as its system BDNF. In words: BDNF content in peripheral and brain tissues of STZ diabetic neuropathy model rats. The class given is in vivo, SD rats. Here is the method:
as §1, §2

Experiment [5] has as its system diabetic neuropathy model. In words: Motor nerve conduction velocity in STZ diabetic neuropathy model rats. Particulars: 10 mg/kg body weight/day orally for 4 months. The class given is in vivo, SD rats. Here is the method:
A diabetic neuropathy model was made by injecting streptozotocin (STZ) into the tail vein of male 6-week-old SD rats in a dose of 70 mg/kg body weight. After 4 moths of housing, 10 mg/kg body weight/day of compound (5) which was suspended in 0.5% (w/v) methylcellulose was orally administered for 4 months. After administration, the rats were anesthetized with pentobarbital and the body temperature of the rats were kept 37° C. using a hotplate heated and an electric lamp. Then, conduction velocities of motor nerves and sensory nerves were determined using an induction potential test device (Neuropack 2, produced by Nihon Kohden) in the following manner. Needle electrodes were placed at the thigh or the ankle of the rats. Then, the sciatic nerve or the tibial nerve was stimulated at, in principle, 1.6 mA and the action potential was recorded from the plantar muscle. The motor nerve conduction velocity was calculated from the distance and latencies of the two different stimulating sites.

Experiment [6] has as its system diabetic neuropathy model. In words: Sensory nerve conduction velocity in STZ diabetic neuropathy model rats. Particulars: 10 mg/kg body weight/day orally for 4 months. The class given is in vivo, SD rats. Here is the method: A diabetic neuropathy model was made by injecting streptozotocin (STZ) into the tail vein of male 6-week-old SD rats in a dose of 70 mg/kg body weight. After 4 moths of housing, 10 mg/kg body weight/day of compound (5) which was suspended in 0.5% (w/v) methylcellulose was orally administered for 4 months. After administration, the rats were anesthetized with pentobarbital and the body temperature of the rats were kept 37° C. using a hotplate heated and an electric lamp. Then, conduction velocities of motor nerves and sensory nerves were determined using an induction potential test device (Neuropack 2, produced by Nihon Kohden) in the following manner. Proximal or distal positions of the sural nerve of the rats were stimulated at, in principle, 0.8 mA and the potential was recorded at the plantar skin. The sensory nerve conduction velocity was calculated from the distance and latencies of the two different stimulating sites.

Experiment [7] has as its system diabetic neuropathy model. In words: Hyperalgesia test (pressure-stimulant algesiometer, pain threshold of hind-limb) in STZ diabetic neuropathy model rats. The class given is in vivo, SD rats. The note with it: 10 mg/kg body weight/day orally for 1 month. Here is the method:
A diabetic neuropathy model was made by injecting streptozotocin (STZ) into the tail vein of male 6-week-old SD rats in a dose of 70 mg/kg body weight. After 4 months of housing, 10 mg/kg body weight/day of compound (5) which was suspended in 0.5% (w/v) methylcellulose was orally administered for 1 month. After administration, a hvderalgesia test was conducted using a pressure-stimulant algesiometer (produced by Ugo Basil) to determine the pain threshold of hind-limb.

Experiment [8] relates to BDNF. In words: BDNF content in pons of STZ diabetic neuropathy model rats. Format: in vivo, SD rats. Particulars: 10 mg/kg body weight/day orally for 1 month. The method, then:
(§3) A diabetic neuropathy model was made by injecting streptozotocin (STZ) into the tail vein of male 6-week-old SD rats in a dose of 70 mg/kg body weight. After 4 weeks, 0.1 to 3 mg/kg body weight of compound (5) was orally administered for 4 weeks, and each tissue was collected. The collected tissue was supplemented with 25 to 40 times of disruption buffer (0.1 M Tris-hydrochloride buffer, pH 7.6, containing 1 M sodium chloride, 2% BSA, 2 mM EDTA, 80 trypsin units/L of aprotinin and 0.02% sodium azide) in terms of the wet tissue weight, which was subjected to sonication. After 30 minutes of centrifugation at 15,000 rpm, the supernatant was used as the sample and the NGF and BDNF contents were determined in the same manner as in Experimental Example 1.
(§4) A diabetic neuropathy model was made by injecting streptozotocin (STZ) into the tail vein of male 6-week-old SD rats in a dose of 70 mg/kg body weight. […]
(§5) While, the pons were collected from brain stem to determine the contents of neurotrophic factors. The BDNF contents were determined in the similar manner as in Experimental Example 2. The NT-3 contents were determined in the similar manner as in Experimental Example 2 except that an anti-NT-3 antibody (Brain Res. 1994, 12, pp. 143-146; Clin Chim Acta 1994, 227, pp. 23-36) was used.

Another experiment has as its system NT-3. In words: NT-3 content in pons of STZ diabetic neuropathy model rats. Format: in vivo, SD rats. The note with it: 10 mg/kg body weight/day orally for 1 month. The method, then: as §3, §4, §5
Where [9] appears, read: 0.1 to 3 mg/kg body weight orally for 4 weeks, hippocampus, Mean ± SD (n = 8 to 9), *: p < 0.05 vs STZ group.
The mark [10] stands for this setting: 0.1 to 3 mg/kg body weight orally for 4 weeks, sciatic nerve, Mean ± SD (n = 8 to 9), *: p < 0.05 vs STZ group.
Setting [11] is: Mean ± SD (n = 5 to 8), **: p < 0.01 vs STZ group.
Where [12] appears, read: pons, Mean ± SD (n = 10), **: p < 0.01 vs STZ group.

In the case of `Cc1ccccc1OCCCc1oc(-n2ccnc2C)nc1-c1ccc(Cl)cc1` [Compound (5), 4-(4-chlorophenyl)-2-(2-methyl-1-imidazolyl)-5-[3-(2-methylphenoxy)propyl]oxazole], the “NGF production/secretion promoting activity” value in the experiment on NGF [1] was “excellent”. Further, in the experiment on BDNF [2], the “BDNF production/secretion promoting activity” value is listed as “excellent”. In the experiment on NGF [3] (setting [9]), the “NGF (pg/g tissue) Hippocampus” value is on record as 738 ± 105* pg/g tissue. For the same compound, the “NGF (pg/g tissue) Sciatic nerve” value with NGF [3] (setting [10]) is 495 ± 143* pg/g tissue. In addition, the “NGF production/secretion promoting activity at the sciatic nerve and the hippocampus” value in the experiment with NGF [3] (oral, 4 weeks, result in words) is “excellent”. In the experiment on BDNF [4] (setting [9]), the “BDNF (ng/g tissue) Hippocampus” value is 3.5 ± 0.3* ng/g tissue. Moreover, the “BDNF (ng/g tissue) Sciatic nerve” value with BDNF [4] (setting [10]) is 5.0 ± 0.6* ng/g tissue. Moreover, the “BDNF production/secretion promoting activity at the sciatic nerve and the hippocampus” value with BDNF [4] (oral, 4 weeks, result in words) is recorded as “excellent”. Besides, the “MNCV (m/s)” value in [5] (setting [11]) is recorded as 54.9 ± 7.6** m/s. Besides, the “motor nerve conduction velocity, effect versus STZ group” value in [5] (result in words) was “recovered”. Besides, the “SNCV (m/s)” value in experiment [6] (setting [11]) is given as 41.1 ± 7.9** m/s. The “sensory nerve conduction velocity, effect versus STZ group” value in experiment [6] (result in words) is listed as “recovered”. The “Pain threshold (g)” value in [7] (hind-limb, Mean ± SD (n = 10), **: p < 0.01 vs STZ group) is reported as 109 ± 19** g. The “hyperalgesia, effect versus STZ group” value in experiment [7] (result in words) is given as “ameliorated”. Besides, the “BDNF (pg/g tissue)” value in the experiment with BDNF [8] (setting [12]) is given as 4151 ± 1161** pg/g tissue. In addition, in the experiment on BDNF [8] (result in words), the “amount of BDNF in pons, effect versus STZ group” value is “increased”. For the same compound, the “NT-3 (pg/g tissue)” value in the experiment on NT-3 (setting [12]) is recorded as 352 ± 118** pg/g tissue. In addition, the “amount of NT-3 in pons, effect versus STZ group” value with NT-3 (result in words) is listed as “increased”.
For the compound `COc1ccccc1OCCCc1oc(-n2ccnc2C)nc1-c1ccc(Cl)cc1` [Compound (1), 4-(4-chlorophenyl)-5-[3-(2-methoxyphenoxy)propyl]-2-(2-methyl-1-imidazolyl)oxazole], in the experiment on NGF [1], the “NGF production/secretion promoting activity” value is on record as “excellent”. Besides, the “BDNF production/secretion promoting activity” value in the experiment with BDNF [2] is listed as “excellent”.
